{"source": "patent US11039618B2", "about": "“Metam salts and polysulfide soil treatment” (Tessenderlo Kerley, Inc, priority 2016, dated 2021)", "key": {"Black Dot": {"test_system": "Black Dot", "experiment": "Field test near Moses Lake, Wash.: black dot colonies in soil after shank treatment", "parameters": "species or system Colletotrichum coccodes", "conditions": "single sample sites, 4 inches depth; metam 45 gal/acre; LSS 90 gal/acre; metam + LSS 30 + 30 gal/acre", "protocol": "A field test was performed in small plots in a grower's location in near Moses Lake, Wash. using commercial equipment, shanking the product 8-9 inches into the ground, in February 2016. A few treated areas were sampled a few months after treatment. This field is believed to be low in pest pressure. […] The mixture is compatible as a ground application, including using standard tanks, hoses, nozzles, and shanks. It is believed the product will also be stable when added to water to form a dilute product, due to the sodium or potassium hydroxide in metam. Therefore, alkali sulfide salts need not be added.\nLocation 1 was treated with 45 gallons per acre of Sectagon®, the metam sodium solution, equivalent to 191 pounds metam sodium per acre. This is considered a standard treatment protocol. Section 2 was treated with only liquid lime sulfur, at 90 gallons per acre (276 pounds calcium polysulfide/acre). Section 3 was treated with 30 gallons per acre Sectagon® and 30 gallons per acre liquid lime sulfur (92 pounds calcium polysulfide and 127 pounds metam sodium per acre). The treatment chemicals were obtained from Tessenderlo Kerley. A sufficient time following the treatments, V. dahliae concentrations and black dot concentrations were determined at 4 inches depth and at 8 inches depth at three random sample sites in each treated plot. No controls were run, and the variability in samples were high. […]"}, "Verticillium [1]": {"test_system": "Verticillium", "experiment": "Jar test 2015: Verticillium microsclerotia colonies in treated soil (soil moisture 35% w/w)", "type": "cell-based, Verticillium dahliae", "conditions": "Metam 68 gal/acre (323 kg active/ha)", "protocol": "(§1) These investigations were performed under laboratory conditions in an initial jar test. We also investigated the pathogen control efficacy of LSS treatments, at 30 gal/acre (90 pounds/acre or 101 Kg/ha of calcium polysulfide) and at 90 gal/acre (276 pounds/acre or 310 Kg/ha of calcium polysulfide), and combined Metam/LSS treatments using Sectagon® brand metam at 20 gal/acre Metam (84 pounds/acre or 94 Kg/ha of metam sodium) with 40 gal/acre LSS (122 pounds/acre or 138 Kg/ha of calcium polysulfide); and at 30 gal/acre Metam (126 pounds/acre or […] of metam sodium) with 20 gal/acre LSS (60 pounds/acre or 67 kg/ha of calcium polysulfide). […] This may be due to lower water saturation in the 2016 tests compared to the saturation in 2015 tests, which was near 100%.\nThe major difference between the 2015 tests and the 2016 tests was soil moisture. For the 2015 tests the soil moisture was set at 35% w/w (ca. 100% field capacity). For the 2016 tests, the soil moisture was set at 20% w/w (ca. 66% field capacity).\nDifferences in test protocol between 2015 and 2016 tests are summarized below, and colony counts per gram of dry soil for the 2015 tests are shown below.\n2015: Soil Moisture 35% w/w (ca. 100% field capacity)\n2016: Decided 2015 soil moisture was too high; reduced to 20% w/w. […]"}, "Verticillium [2]": {"test_system": "Verticillium", "experiment": "Example 6: Verticillium population in treated farm soil samples", "type": "cell-based", "conditions": "soil from another location"}, "Verticillium [3]": {"test_system": "Verticillium", "experiment": "Jar test 2016: Verticillium microsclerotia colonies in treated soil, dry soil plating on NP-10", "type": "cell-based, Verticillium dahliae", "conditions": "Metam 40 gal/acre (190 kg active/ha); 2016", "protocol": "as §1\nEach treatment listed in Table 1 was replicated 4 times. Verticillium levels in soil were assessed by dry incubation on semi selective media (NP-10) method. Soil collected from a Romaine lettuce field in Salinas, Calif. was used for the investigation. […]\nExperimental Setup: Seven treatments were installed in 4 replicates each. […] The equivalent of gal/acre was calculated on the assumption that on acre of soil has an average weight of 3,625,895 lbs. […] Afterwards, soil was split between the two laboratories and were assessed according to the method described.\nVerticillium levels in soil were assessed by dry incubation on semi selective media (NP-10). […]\nThe quantity of Verticillium in soil was assessed by dry soil plating on NP-10 semi-selective medium. […] After that, remaining soil was gently washed off the plates and the number of Verticillium microsclerotia colonies were counted on each plate under a microscope. The number of microsclerotia colonies is used as a standard method to quantify Verticillium in soil and was extrapolated for 1 g soil.\nResults were analyzed in a one-way ANOVA (P=0.05) and a Fisher LSD Post-Hoc test. […]\nVerticillium assessments were performed parallel in two separate laboratories. […] The quantity of Verticillium in soil was assessed by dry soil plating on NP-10 semi-selective medium. […]"}}, "data": [{"smiles": "CNC(=S)S", "note": "[Metam, sodium methyldithiocarbamate]", "values": [{"measurement": "Black Dot, 4″", "setting": "Black Dot", "value": "0 colonies per gram of soil"}, {"measurement": "Microsclerotia (Verticillium) per gram of soil, ms/g, 2015", "setting": "Verticillium [1]", "value": 3, "unit": "ms/g"}, {"measurement": "suppression of the Verticillium", "setting": "Verticillium [2]", "value": "only modest suppression"}, {"measurement": "average Verticillium CFU per gram of dry soil", "setting": "Verticillium [2]; average over rates: LSS 45 and 90 gal/acre, metam sodium 20 and 40 gal/acre, mixture 20 and 40 gal metam with 45 gal LSS, untreated 41", "value": "30 CFU per gram of dry soil"}, {"measurement": "Microsclerotia (Verticillium) per gram of soil, ms/g, 2016", "setting": "Verticillium [3]", "value": 6.5, "unit": "ms/g"}]}]}
